Results: ChEMBL document CHEMBL1137546, “The discovery of indole-derived long acting beta2-adrenoceptor agonists for the treatment of asthma and COPD” (Bioorg Med Chem Lett, 2007)

Assays:
[1] = Lipophilicity, log D of the compound; assay type: physicochemical; settings: octanol/water
[2] = species: Homo sapiens; assay: Ratio of EC50 for human recombinant adrenergic beta-2 receptor to EC50 for human recombinant adrenergic beta-1 receptor
[3] = molecular target: Beta-2 adrenergic receptor (Homo sapiens, UniProt P07550)
Description: Agonist activity at human recombinant adrenergic beta-2 receptor expressed in CHO cells assessed as elevation in cAMP levels

[4] = Volume of distribution in iv dosed rat; assay type: ADME, organism-based; settings: in vivo
[5] = Apparent permeability from basolateral to apical side of human Caco-2 cell membrane; assay type: ADME, cell-based
[6] = Apparent permeability from apical to basolateral side of human Caco-2 cell membrane; assay type: ADME, cell-based
[7] = test system: Rattus norvegicus; assay: Unbound clearance in iv dosed rat; assay type: ADME, organism-based; settings: in vivo
[8] = Total clearance in iv dosed rat; assay type: ADME, organism-based; settings: in vivo
[9] = Protein binding in rat plasma; assay type: ADME, cell-free; settings: read-out: PPB (converted)
[10] = Half life in iv dosed rat; assay type: ADME, organism-based; settings: in vivo
[11] = Oral bioavailability po dosed rat; assay type: ADME, organism-based; settings: in vivo
[12] = Metabolic stability in human liver microsomes; assay type: ADME, Microsome

Sequence of Beta-2 adrenergic receptor (P07550 whole entry): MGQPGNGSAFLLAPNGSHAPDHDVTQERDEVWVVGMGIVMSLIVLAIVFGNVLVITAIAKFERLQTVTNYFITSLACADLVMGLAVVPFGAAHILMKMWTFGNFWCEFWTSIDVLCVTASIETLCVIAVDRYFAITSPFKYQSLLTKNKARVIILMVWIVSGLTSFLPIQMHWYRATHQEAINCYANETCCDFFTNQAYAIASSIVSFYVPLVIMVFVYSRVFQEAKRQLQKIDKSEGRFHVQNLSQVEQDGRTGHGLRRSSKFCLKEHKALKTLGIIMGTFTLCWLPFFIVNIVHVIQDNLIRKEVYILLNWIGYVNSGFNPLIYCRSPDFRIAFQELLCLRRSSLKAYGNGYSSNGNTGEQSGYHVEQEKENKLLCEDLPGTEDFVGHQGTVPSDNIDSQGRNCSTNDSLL

logD [1]	Ratio EC50 [2]	EC50 [3] [nM]	Compound	also measured
2.2	1240		COc1ccccc1CNC(=O)c1cc2cc(C[C@@H](C)NC[C@H](O)c3ccc(O)c(CO)c3)ccc2[nH]1	
	5740	0.258	CC[C@H](Cc1ccc2[nH]c(C(=O)NCc3c(OC)cccc3OC)cc2c1)NC[C@H](O)c1ccc(O)c(CO)c1	
2.2	4040	0.058	COc1cccc(OC)c1CNC(=O)c1cc2cc(C[C@@H](C)NC[C@H](O)c3ccc(O)c(CO)c3)ccc2[nH]1	Vd [4]: 18 L/kg; Papp B→A [5]: 140 nm/s; Papp A→B [6]: < 10 nm/s; CL [7]: 72 L/h/kg; clearance [8]: 7.8 L/h/kg; fraction unbound [9]: 0.1; half-life [10]: 96 min; bioavailability [11]: < 5%; half-life [12]: 4 min
2.1	882	0.022	C[C@H](Cc1ccc2[nH]c(C(=O)N(C)Cc3ccccc3)cc2c1)NC[C@H](O)c1ccc(O)c(CO)c1	
	1080	0.706	COc1cccc(OC)c1CNC(=O)c1cc2cc(C[C@@H](C)NC[C@H](O)c3ccc(O)c(CO)c3)ccc2n1C	
	254	2.55	CCn1c(C(=O)NCc2c(OC)cccc2OC)cc2cc(C[C@@H](C)NC[C@H](O)c3ccc(O)c(CO)c3)ccc21	
	332	0.038	CSc1ccccc1CNC(=O)c1cc2cc(C[C@@H](C)NC[C@H](O)c3ccc(O)c(CO)c3)ccc2[nH]1	
	480	0.049	C[C@H](Cc1ccc2[nH]c(C(=O)NCc3ccccc3)cc2c1)NC[C@H](O)c1ccc(O)c(CO)c1	
	237	0.687	COc1cccc(OC)c1CNC(=O)c1cc2cc(C[C@@H](C)NC[C@H](O)c3ccc(O)c(CO)c3)ccc2n1Cc1ccccc1	

The next lines start with the compound.

Compound	logD [1]	Ratio EC50 [2]	EC50 [3] [nM]	also measured
C[C@H](Cc1ccc2[nH]c(C(=O)NCC3CCC3)cc2c1)NC[C@H](O)c1ccc(O)c(CO)c1	1.9	410	0.051	
C[C@H](Cc1ccc2[nH]c(C(=O)NCc3ccc(O)cc3)cc2c1)NC[C@H](O)c1ccc(O)c(CO)c1		75	0.164	
COc1cccc(CCNC(=O)c2cc3cc(C[C@@H](C)NC[C@H](O)c4ccc(O)c(CO)c4)ccc3[nH]2)c1	2	35	0.254	
C[C@H](Cc1ccc2[nH]c(C(=O)NCc3ccc(S(N)(=O)=O)cc3)cc2c1)NC[C@H](O)c1ccc(O)c(CO)c1		42	0.122	
C[C@H](Cc1ccc2[nH]c(C(=O)N[C@H](C)c3ccccc3)cc2c1)NC[C@H](O)c1ccc(O)c(CO)c1	2.2	585	0.058	
C[C@H](Cc1ccc2[nH]c(C(=O)NCc3ccccn3)cc2c1)NC[C@H](O)c1ccc(O)c(CO)c1		1530	0.038	
C[C@H](Cc1ccc2[nH]c(C(=O)NCc3c(F)cccc3F)cc2c1)NC[C@H](O)c1ccc(O)c(CO)c1		296	0.053	
C[C@H](Cc1ccc2[nH]c(C(=O)NCc3nccs3)cc2c1)NC[C@H](O)c1ccc(O)c(CO)c1	0.8	1340	0.031	
OCc1cc([C@@H](O)CNCCCCCCOCCCCc2ccccc2)ccc1O [SALMETEROL]	2.1			
